Measured values taken from the supplement of paper PMC8617591.

Experiments:
[1] = tested on: Mycobacterium tuberculosis Erdman (autoluminescent); assay: total FIC90 (Loewe) at 90% inhibition, three-drug combination (log2); higher = more antagonistic
Protocol: (§1)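 DiaMOND equipotent three-drug combination dose responses (10 doses, 1.5- or 2-fold spacing, centred on IC90) against autoluminescent M. tuberculosis Erdman in 8 in vitro models. Read-out is OD600, or luminescence for the intracellular and dormancy models, normalised to untreated wells. Hill-fit Einf, AUC25 and GRinf are potency metrics; FIC50 and FIC90 are total Loewe fractional inhibitory concentrations as log2 (negative = synergy).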

[2] = tested on: Mycobacterium tuberculosis Erdman (autoluminescent); assay: total FIC50 (Loewe) at 50% inhibition, three-drug combination (log2); higher = more antagonistic
Protocol: as §1

[3] = tested on: Mycobacterium tuberculosis Erdman (autoluminescent); assay: AUC25, normalised area under dose response up to IC25 (three-drug combination) (fraction (0-1)); higher = more potent at low dose
Protocol: as §1

[4] = tested on: Mycobacterium tuberculosis Erdman (autoluminescent); assay: Einf, fitted maximum growth inhibition of three-drug combination (fraction); higher = stronger maximal inhibition
Protocol: as §1

[5] = tested on: Mycobacterium tuberculosis Erdman (autoluminescent); assay: GRinf, maximum normalised growth rate inhibition (three-drug combination) (unitless (-1 to 1)); higher = less effect (negative = killing)
Protocol: as §1

CC(C)/N=c1\cc2n(-c3ccc(Cl)cc3)c3ccccc3nc-2cc1Nc1ccc(Cl)cc1 [clofazimine] + NNC(=O)c1ccncc1 [isoniazid] + CO[C@H]1/C=C/O[C@@]2(C)Oc3c(C)c(O)c4c(O)c(c(/C=N/N5CCN(C6CCCC6)CC5)c(O)c4c3C2=O)NC(=O)/C(C)=C\C=C\[C@H](C)[C@H](O)[C@@H](C)[C@@H](O)[C@@H](C)[C@H](OC(C)=O)[C@@H]1C [rifapentine]
Settings	AUC25, [3]	Einf, [4]	GRinf, [5]	total FIC50, [2]	total FIC90, [1]
in vitro model: acidic pH 5.7, time point: constant (~7 days, model-specific)	0.0883	0.85	-0.0449	0.415	–
in vitro model: acidic pH 5.7, time point: terminal (~4-5 doublings, model-specific)	0.09	0.989	-0.185	0.259	0.468
in vitro model: intracellular J774, time point: constant = terminal	–	0.954	-0.131	–	0.169

Settings	AUC25, [3]	Einf, [4]	GRinf, [5]	total FIC50, [2]	total FIC90, [1]
in vitro model: butyrate, time point: constant (~7 days, model-specific)	0.0986	0.951	-0.088	0.508	0.999
in vitro model: butyrate, time point: terminal (~4-5 doublings, model-specific)	0.0792	0.98	-0.0855	0.521	0.588
in vitro model: cholesterol 0.05 mM, time point: constant (~7 days, model-specific)	0.118	0.666	0.0951	0.541	–
in vitro model: cholesterol 0.05 mM, time point: terminal (~4-5 doublings, model-specific)	0.0787	0.8	-0.0213	1.11	1.88
in vitro model: cholesterol-high 0.2 mM, time point: constant (~7 days, model-specific)	0.0889	0.959	-0.471	0.542	–
in vitro model: cholesterol-high 0.2 mM, time point: terminal (~4-5 doublings, model-specific)	0.0744	0.999	-0.743	0.993	0.67
in vitro model: dormancy (butyrate + nitrate, low O2), time point: constant (~7 days, model-specific)	0.0787	0.9	0.166	0.0637	-0.201
in vitro model: dormancy (butyrate + nitrate, low O2), time point: terminal (~4-5 doublings, model-specific)	0.0623	0.989	-0.337	0.174	0.32
in vitro model: standard 7H9 glycerol, time point: constant = terminal	0.111	0.942	-0.0519	0.0163	1.07
in vitro model: valerate, time point: constant (~7 days, model-specific)	0.118	0.858	0.0326	0.882	–
in vitro model: valerate, time point: terminal (~4-5 doublings, model-specific)	0.0644	0.907	0.0296	0.418	-0.138

O=[N+]([O-])c1cn2c(n1)OC[C@@H](OCc1ccc(OC(F)(F)F)cc1)C2 [pretomanid] + NC(=O)c1cnccn1 [pyrazinamide] + CO[C@H]1/C=C/O[C@@]2(C)Oc3c(C)c(O)c4c(O)c(c(/C=N/N5CCN(C6CCCC6)CC5)c(O)c4c3C2=O)NC(=O)/C(C)=C\C=C\[C@H](C)[C@H](O)[C@@H](C)[C@@H](O)[C@@H](C)[C@H](OC(C)=O)[C@@H]1C [rifapentine]
Settings	AUC25, [3]	Einf, [4]	GRinf, [5]	total FIC50, [2]	total FIC90, [1]
in vitro model: acidic pH 5.7, time point: constant (~7 days, model-specific)	0.0839	0.9	-0.227	-0.141	–
in vitro model: acidic pH 5.7, time point: terminal (~4-5 doublings, model-specific)	0.0799	0.992	-0.234	-0.0208	-0.284
in vitro model: intracellular J774, time point: constant = terminal	–	0.98	-0.184	–	0.00169

Settings	AUC25, [3]	Einf, [4]	GRinf, [5]	total FIC50, [2]	total FIC90, [1]
in vitro model: butyrate, time point: constant (~7 days, model-specific)	0.101	0.889	0.102	0.0451	-0.0718
in vitro model: butyrate, time point: terminal (~4-5 doublings, model-specific)	0.0909	0.956	0.0745	0.0568	0.587
in vitro model: cholesterol 0.05 mM, time point: constant (~7 days, model-specific)	0.118	0.768	-0.296	–	–
in vitro model: cholesterol 0.05 mM, time point: terminal (~4-5 doublings, model-specific)	0.103	0.936	-0.415	1.28	–
in vitro model: cholesterol-high 0.2 mM, time point: constant (~7 days, model-specific)	0.0849	0.919	-0.211	0.553	–
in vitro model: cholesterol-high 0.2 mM, time point: terminal (~4-5 doublings, model-specific)	0.0594	0.999	-0.626	1.12	0.566
in vitro model: dormancy (butyrate + nitrate, low O2), time point: constant (~7 days, model-specific)	0.0875	0.881	0.197	0.097	0.142
in vitro model: dormancy (butyrate + nitrate, low O2), time point: terminal (~4-5 doublings, model-specific)	0.0996	0.995	-0.152	-0.593	0.838
in vitro model: standard 7H9 glycerol, time point: constant = terminal	0.0581	0.893	0.139	-0.0175	–
in vitro model: valerate, time point: constant (~7 days, model-specific)	0.0881	0.855	0.0565	0.0684	–
in vitro model: valerate, time point: terminal (~4-5 doublings, model-specific)	0.0574	0.918	0.0492	0.378	-0.054

CC(=O)NC[C@H]1CN(c2ccc(N3CCOCC3)c(F)c2)C(=O)O1 [linezolid] + NC(=O)c1cnccn1 [pyrazinamide] + CO[C@H]1/C=C/O[C@@]2(C)Oc3c(C)c(O)c4c(O)c(c(/C=N/N5CCN(C6CCCC6)CC5)c(O)c4c3C2=O)NC(=O)/C(C)=C\C=C\[C@H](C)[C@H](O)[C@@H](C)[C@@H](O)[C@@H](C)[C@H](OC(C)=O)[C@@H]1C [rifapentine]
Settings	AUC25, [3]	Einf, [4]	GRinf, [5]	total FIC50, [2]	total FIC90, [1]
in vitro model: butyrate, time point: constant (~7 days, model-specific)	0.0966	0.892	0.08	-0.0866	–
in vitro model: butyrate, time point: terminal (~4-5 doublings, model-specific)	0.0673	0.94	0.0873	0.038	-0.132
in vitro model: cholesterol 0.05 mM, time point: constant (~7 days, model-specific)	0.143	0.758	-0.43	–	–
in vitro model: cholesterol 0.05 mM, time point: terminal (~4-5 doublings, model-specific)	0.139	0.938	-0.446	0.219	–
in vitro model: cholesterol-high 0.2 mM, time point: constant (~7 days, model-specific)	0.112	0.952	-0.497	0.301	–
in vitro model: cholesterol-high 0.2 mM, time point: terminal (~4-5 doublings, model-specific)	0.0909	1	-0.945	0.319	-0.0261
in vitro model: dormancy (butyrate + nitrate, low O2), time point: constant (~7 days, model-specific)	0.0577	0.867	0.245	0.405	0.766
in vitro model: dormancy (butyrate + nitrate, low O2), time point: terminal (~4-5 doublings, model-specific)	0.0343	0.976	-0.12	0.486	0.153
in vitro model: standard 7H9 glycerol, time point: constant = terminal	0.0547	0.876	0.183	0.187	–
in vitro model: valerate, time point: constant (~7 days, model-specific)	0.0698	0.865	0.0833	-0.277	–
in vitro model: valerate, time point: terminal (~4-5 doublings, model-specific)	0.0324	0.921	0.0692	-0.0139	-0.406

Settings	AUC25, [3]	Einf, [4]	GRinf, [5]	total FIC50, [2]	total FIC90, [1]
in vitro model: acidic pH 5.7, time point: constant (~7 days, model-specific)	0.105	0.91	-0.206	0.0539	–
in vitro model: acidic pH 5.7, time point: terminal (~4-5 doublings, model-specific)	0.0872	0.992	-0.258	-0.0159	–
in vitro model: intracellular J774, time point: constant = terminal	–	0.947	-0.174	–	-0.0473
